Numbers after ± are expanded uncertainties.
Assays:
[1] = for surface tension liquid-gas: Wilhelmy plate method; for mass density: 101 kPa, Liquid, Vibrating tube method
[2] = xn = mol fraction of the nth substance listed; conditions: for surface tension liquid-gas: Wilhelmy plate method; for mass density: 101 kPa, Liquid, Vibrating tube method

CCCCn1cc[n+](C)c1.C[C@H](O)C(=O)[O-] [1-butyl-3-methylimidazolium L-lactate]
[1]
Conditions	mass density [kg/m3]	surface tension liquid-gas [mN/m]
293.15 K	1115.3 ± 0.5	43.14 ± 0.37
298.15 K	1111.2 ± 0.5	42.92 ± 0.37
303.15 K	1107.5 ± 0.5	42.79 ± 0.37
308.15 K	1104.2 ± 0.5	42.37 ± 0.37
313.15 K	1100.5 ± 0.5	42.19 ± 0.37
318.15 K	1097.7 ± 0.5	42.01 ± 0.37
323.15 K	1094.1 ± 0.5	41.64 ± 0.37
333.15 K	1086.1 ± 0.5	41.04 ± 0.36
343.15 K	1079.8 ± 0.5	40.56 ± 0.36

CCO [ethanol]
[1]
Conditions	mass density [kg/m3]	surface tension liquid-gas [mN/m]
298.15 K	784.7 ± 0.4	22.11 ± 0.31
308.15 K	776.2 ± 0.4	21.13 ± 0.3
318.15 K	767 ± 0.4	20.48 ± 0.3

CO [methanol] + CCCCn1cc[n+](C)c1.C[C@H](O)C(=O)[O-]
[2], x2 = 0
Conditions	mass density [kg/m3]	surface tension liquid-gas [mN/m]
298.15 K	786.4 ± 0.4	22.22 ± 0.31
308.15 K	776.9 ± 0.4	21.46 ± 0.3
318.15 K	767.2 ± 0.4	20.46 ± 0.3

CCCCn1cc[n+](C)c1.C[C@H](O)C(=O)[O-] [1-butyl-3-methylimidazolium L-lactate] + CCCCO
[2]
Conditions	mass density [kg/m3]	surface tension liquid-gas [mN/m]
298.15 K, x1 = 0.01	–	24.18 ± 0.3
298.15 K, x1 = 0.0297	–	24.53 ± 0.3
298.15 K, x1 = 0.0482	–	24.7 ± 0.3
298.15 K, x1 = 0.0601	–	24.83 ± 0.3
298.15 K, x1 = 0.0888	–	25.1 ± 0.3
298.15 K, x1 = 0.0999	875.7 ± 0.4	–
298.15 K, x1 = 0.1001	–	25.17 ± 0.3
298.15 K, x1 = 0.1996	927.3 ± 0.4	26.2 ± 0.3
298.15 K, x1 = 0.3016	–	27.25 ± 0.3
298.15 K, x1 = 0.303	968.1 ± 0.4	–
298.15 K, x1 = 0.3998	997.8 ± 0.4	–
298.15 K, x1 = 0.4004	–	28.42 ± 0.31
298.15 K, x1 = 0.4997	–	29.67 ± 0.31
298.15 K, x1 = 0.5	1024.2 ± 0.4	–
298.15 K, x1 = 0.5889	–	31.11 ± 0.32
298.15 K, x1 = 0.6002	1044.6 ± 0.4	–
298.15 K, x1 = 0.6979	–	32.64 ± 0.32
298.15 K, x1 = 0.7001	1060.8 ± 0.4	–
298.15 K, x1 = 0.8	1076.4 ± 0.4	–
298.15 K, x1 = 0.8012	–	34.73 ± 0.33
298.15 K, x1 = 0.8747	–	36.6 ± 0.34
298.15 K, x1 = 0.8999	1091.8 ± 0.5	–
298.15 K, x1 = 1	1111.2 ± 0.5	42.92 ± 0.37
308.15 K, x1 = 0.0101	–	23.63 ± 0.3
308.15 K, x1 = 0.0295	–	23.87 ± 0.3
308.15 K, x1 = 0.0495	–	24.18 ± 0.3
308.15 K, x1 = 0.0604	–	24.22 ± 0.3
308.15 K, x1 = 0.0884	–	24.59 ± 0.3
308.15 K, x1 = 0.0999	868.3 ± 0.4	24.67 ± 0.3
308.15 K, x1 = 0.1996	920.3 ± 0.4	–
308.15 K, x1 = 0.1999	–	25.68 ± 0.3
308.15 K, x1 = 0.3008	–	26.81 ± 0.3
308.15 K, x1 = 0.303	960.8 ± 0.4	–
308.15 K, x1 = 0.3994	–	28.18 ± 0.31
308.15 K, x1 = 0.3998	990.5 ± 0.4	–
308.15 K, x1 = 0.4989	–	29.41 ± 0.31
308.15 K, x1 = 0.5	1017.2 ± 0.4	–
308.15 K, x1 = 0.5877	–	30.83 ± 0.32
308.15 K, x1 = 0.6002	1037.4 ± 0.4	–
308.15 K, x1 = 0.695	–	32.5 ± 0.32
308.15 K, x1 = 0.7001	1053.9 ± 0.4	–
308.15 K, x1 = 0.7981	–	34.33 ± 0.33
308.15 K, x1 = 0.8	1069 ± 0.4	–
308.15 K, x1 = 0.8807	–	36.48 ± 0.34
308.15 K, x1 = 0.8999	1084.2 ± 0.5	–
308.15 K, x1 = 1	1104.2 ± 0.5	42.37 ± 0.37
318.15 K, x1 = 0.0101	–	23.08 ± 0.3
318.15 K, x1 = 0.0296	–	23.25 ± 0.3
318.15 K, x1 = 0.0485	–	23.59 ± 0.3
318.15 K, x1 = 0.061	–	23.71 ± 0.3
318.15 K, x1 = 0.0903	–	23.93 ± 0.3
318.15 K, x1 = 0.0999	859.6 ± 0.4	–
318.15 K, x1 = 0.1004	–	24.17 ± 0.3
318.15 K, x1 = 0.1996	913 ± 0.4	–
318.15 K, x1 = 0.2004	–	25.18 ± 0.3
318.15 K, x1 = 0.3011	–	26.53 ± 0.3
318.15 K, x1 = 0.303	953.9 ± 0.4	–
318.15 K, x1 = 0.3986	–	28 ± 0.31
318.15 K, x1 = 0.3998	983.4 ± 0.4	–
318.15 K, x1 = 0.4989	–	29.33 ± 0.31
318.15 K, x1 = 0.5	1010.1 ± 0.4	–
318.15 K, x1 = 0.59	–	30.68 ± 0.32
318.15 K, x1 = 0.6002	1030.9 ± 0.4	–
318.15 K, x1 = 0.688	–	32.24 ± 0.32
318.15 K, x1 = 0.7001	1047.5 ± 0.4	–
318.15 K, x1 = 0.7993	–	34.23 ± 0.33
318.15 K, x1 = 0.8	1062 ± 0.4	–
318.15 K, x1 = 0.8735	–	36.03 ± 0.34
318.15 K, x1 = 0.8999	1077.3 ± 0.5	–
318.15 K, x1 = 1	1097.7 ± 0.5	42.01 ± 0.37

CCCCn1cc[n+](C)c1.C[C@H](O)C(=O)[O-] [1-butyl-3-methylimidazolium L-lactate] + O
[2]
Conditions	mass density, 298.15 K [kg/m3]	mass density, 308.15 K [kg/m3]	mass density, 318.15 K [kg/m3]	surface tension liquid-gas, 298.15 K [mN/m]	surface tension liquid-gas, 308.15 K [mN/m]	surface tension liquid-gas, 318.15 K [mN/m]
x1 = 0.0097	–	–	–	53.67 ± 0.63	51.15 ± 0.6	49.79 ± 0.6
x1 = 0.0303	–	–	–	47.86 ± 0.56	46.42 ± 0.55	45.58 ± 0.54
x1 = 0.0401	–	–	–	46.95 ± 0.55	46.08 ± 0.54	45.57 ± 0.54
x1 = 0.0602	–	–	–	46.15 ± 0.54	45.87 ± 0.54	45.55 ± 0.53
x1 = 0.0801	–	–	–	46.98 ± 0.54	46.54 ± 0.54	46.18 ± 0.54
x1 = 0.1	–	–	–	46.96 ± 0.54	46.83 ± 0.54	46.15 ± 0.53
x1 = 0.1001	1042.3 ± 0.9	1039.4 ± 0.9	1036.4 ± 0.9	–	–	–
x1 = 0.2001	1061.4 ± 0.8	1058.3 ± 0.8	1055 ± 0.8	46.03 ± 0.51	44.94 ± 0.5	44.2 ± 0.5
x1 = 0.2999	1075 ± 0.8	1071 ± 0.8	1066.6 ± 0.8	–	–	–
x1 = 0.3003	–	–	–	44.61 ± 0.48	43.59 ± 0.48	42.86 ± 0.47
x1 = 0.3985	1083.6 ± 0.7	1079.1 ± 0.7	1074.1 ± 0.7	–	–	–
x1 = 0.3997	–	–	–	44.08 ± 0.46	43.16 ± 0.46	42.44 ± 0.45
x1 = 0.4994	–	–	–	43.46 ± 0.44	43.07 ± 0.44	42.27 ± 0.44
x1 = 0.5023	1090.3 ± 0.7	1085.4 ± 0.7	1080.2 ± 0.7	–	–	–
x1 = 0.5989	–	–	–	43.47 ± 0.43	42.87 ± 0.42	42.11 ± 0.42
x1 = 0.6002	1095.7 ± 0.6	1090.2 ± 0.6	1084.3 ± 0.6	–	–	–
x1 = 0.6982	–	–	–	43.41 ± 0.41	42.62 ± 0.41	42.02 ± 0.41
x1 = 0.6986	1099.8 ± 0.6	1093.5 ± 0.6	1087.4 ± 0.6	–	–	–
x1 = 0.8	1103.3 ± 0.6	1096.6 ± 0.6	1090.3 ± 0.5	–	–	–
x1 = 0.8017	–	–	–	43.35 ± 0.4	42.54 ± 0.39	42 ± 0.39
x1 = 0.8965	–	–	–	43.2 ± 0.38	42.48 ± 0.38	41.82 ± 0.38
x1 = 0.9001	1107.2 ± 0.5	1100.3 ± 0.5	1093.8 ± 0.5	–	–	–
x1 = 1	1111.2 ± 0.5	1104.2 ± 0.5	1097.7 ± 0.5	42.92 ± 0.37	42.37 ± 0.37	42.01 ± 0.37
